≈ marks a conversion by molar mass, not a printed value. Calls of active or inactive are those of the source. The rule behind the calls is not given here.
Assays:
Staphylococcus aureus [1] = assay: Ratio of MBC for methicillin-sensitive Staphylococcus aureus ATCC 25923 to MIC90 for methicillin-sensitive Staphylococcus aureus ATCC 25923; format: functional
Staphylococcus aureus [2] = assay: Bactericidal activity against methicillin-sensitive Staphylococcus aureus ATCC 6538 after 24 and 48 hrs; format: functional
Staphylococcus aureus [3] = assay: Antibacterial activity against methicillin-sensitive Staphylococcus aureus ATCC 49775 after 20 to 24 hrs in presence of 50% heat inactivated bovine serum; format: functional
Staphylococcus aureus [4] = assay: Bactericidal activity against methicillin-sensitive Staphylococcus aureus ATCC 29213 after 24 and 48 hrs; format: functional
Escherichia coli [5] = assay: Ratio of MIC90 for Escherichia coli ATCC 25922 to MIC90 for Escherichia coli ATCC 25922 in presence of polymyxin B nonapeptide; format: functional
Staphylococcus aureus [6] = assay: Bactericidal activity against methicillin-sensitive Staphylococcus aureus ATCC 29213 assessed as log reduction in bacterial cell number at 2 times MIC after 8 hrs by time-kill curve analysis; format: functional
Staphylococcus aureus [7] = assay: Antibacterial activity against methicillin-sensitive Staphylococcus aureus ATCC 6538 after 20 to 24 hrs in presence of 50% heat inactivated bovine serum; format: functional
Staphylococcus aureus [8] = assay: Antibacterial activity against methicillin-resistant Staphylococcus aureus clinical isolate after 20 to 24 hrs; format: functional
[9] = Cytotoxicity against human HEL299 cells after 24 hrs by WST-1 based colorimetric assay; format: cell-based, HEL 299
Escherichia coli [10] = assay: Antibacterial activity against Escherichia coli ATCC 25922 after 20 to 24 hrs; format: functional
Staphylococcus aureus [11] = assay: Antibacterial activity against methicillin-sensitive Staphylococcus aureus ATCC 29213 after 20 to 24 hrs in presence of 50% heat inactivated bovine serum
Staphylococcus aureus [12] = assay: Bactericidal activity against Methicillin-sensitive Staphylococcus aureus ATCC 29213 assessed as log reduction in bacterial cell number at MIC after 8 hrs by time kill curve analysis
Pseudomonas aeruginosa [13] = assay: Ratio of MIC90 for Pseudomonas aeruginosa ATCC 27853 to MIC90 for Pseudomonas aeruginosa ATCC 27853 in presence of polymyxin B nonapeptide; format: functional
[14] = Selectivity index, ratio of GI50 for human HEL299 cells to MIC50 for methicillin-resistant Staphylococcus aureus clinical isolate; format: functional, HEL 299
Staphylococcus aureus [15] = assay: Bactericidal activity against Methicillin-sensitive Staphylococcus aureus ATCC 29213 assessed as log reduction in bacterial cell number at 8 times MIC after 24 hrs by time-kill curve analysis; format: functional, organism-based
Staphylococcus aureus [16] = assay: Bactericidal activity against methicillin-sensitive Staphylococcus aureus ATCC 29213 assessed as log reduction in bacterial cell number at 8 times MIC after 8 hrs by time-kill curve analysis; format: functional
Staphylococcus aureus [17] = assay: Antibacterial activity against methicillin-sensitive Staphylococcus aureus ATCC 29213 after 20 to 24 hrs in presence of 50% heat inactivated bovine serum; remark: listed apart in the source
Staphylococcus aureus [18] = assay: Bactericidal activity against methicillin-sensitive Staphylococcus aureus ATCC 49775 after 24 and 48 hrs; format: functional
Staphylococcus aureus [19] = assay: Antibacterial activity against methicillin-sensitive Staphylococcus aureus ATCC 49775 after 20 to 24 hrs; format: functional
Staphylococcus aureus [20] = assay: Bactericidal activity against methicillin-sensitive Staphylococcus aureus ATCC 25923 after 24 and 48 hrs; format: functional
Staphylococcus aureus [21] = assay: Ratio of MBC for methicillin-sensitive Staphylococcus aureus ATCC 6538 to MIC90 for methicillin-sensitive Staphylococcus aureus ATCC 6538; format: functional
Staphylococcus aureus [22] = assay: Antibacterial activity against methicillin-sensitive Staphylococcus aureus ATCC 25923 after 20 to 24 hrs; format: functional
Enterococcus = assay: Antibacterial activity against vancomycin-resistant Enterococcus after 20 to 24 hrs; format: functional
Staphylococcus aureus [23] = assay: Antibacterial activity against methicillin-resistant Staphylococcus aureus after 20 to 24 hrs; format: functional
Staphylococcus aureus [24] = assay: Ratio of MBC for methicillin-sensitive Staphylococcus aureus ATCC 29213 to MIC90 for methicillin-sensitive Staphylococcus aureus ATCC 29213; format: functional
Staphylococcus aureus [25] = assay: Bactericidal activity against methicillin-sensitive Staphylococcus aureus ATCC 29213 assessed as log reduction in bacterial cell number at MIC after 8 hrs by time-kill curve analysis; format: functional
Pseudomonas aeruginosa [26] = assay: Antibacterial activity against Pseudomonas aeruginosa ATCC 27853 after 20 to 24 hrs in presence of polymyxin B nonapeptide; format: functional
Staphylococcus aureus [27] = assay: Bactericidal activity against […] Staphylococcus aureus clinical isolate USA300 assessed as log reduction in bacterial cell number at 8 times MIC after 24 hrs by time-kill curve analysis; format: functional, organism-based
Escherichia coli [28] = assay: Antibacterial activity against Escherichia coli ATCC 25922 after 20 to 24 hrs in presence of polymyxin B nonapeptide; format: functional
Staphylococcus aureus [29] = assay: Bactericidal activity against Methicillin-sensitive Staphylococcus aureus ATCC 29213 assessed as log reduction in bacterial cell number at 4 times MIC after 24 hrs by time kill curve analysis; format: functional, organism-based
Staphylococcus aureus [30] = assay: Bactericidal activity against Methicillin-sensitive Staphylococcus aureus ATCC 29213 assessed as log reduction in bacterial cell number at 2 times MIC after 24 hrs by time kill curve analysis; format: functional, organism-based
Pseudomonas aeruginosa [31] = assay: Antibacterial activity against Pseudomonas aeruginosa ATCC 27853 after 20 to 24 hrs; format: functional
Staphylococcus aureus [32] = assay: Antibacterial activity against methicillin-sensitive Staphylococcus aureus ATCC 29213 after 20 to 24 hrs; format: functional
[33] = Toxicity in sheep erythrocytes assessed as hemolysis at 600 uM after 30 mins; format: cell-based, Ovis aries; conditions: erythrocyte, 0.5 h
Staphylococcus aureus [34] = assay: Bactericidal activity against […] Staphylococcus aureus clinical isolate USA300 assessed as log reduction in bacterial cell number at 4 times MIC after 24 hrs by time-kill curve analysis; format: functional, organism-based
[35] = Selectivity index, ratio of GI50 for human HEL299 cells to MIC50 for methicillin-sensitive Staphylococcus aureus clinical isolate; format: functional, HEL 299
[36] = Selectivity index, ratio of GI50 for human HepG2 cells to MIC50 for methicillin-sensitive Staphylococcus aureus clinical isolate; format: functional
Staphylococcus aureus [37] = assay: Ratio of MBC for methicillin-sensitive Staphylococcus aureus ATCC 49775 to MIC90 for methicillin-sensitive Staphylococcus aureus ATCC 49775; format: functional
Staphylococcus aureus [38] = assay: Bactericidal activity against methicillin-sensitive Staphylococcus aureus ATCC 29213 assessed as log reduction in bacterial cell number at 4 times MIC after 8 hrs by time-kill curve analysis; format: functional
Staphylococcus aureus [39] = assay: Antibacterial activity against methicillin-sensitive Staphylococcus aureus ATCC 6538 after 20 to 24 hrs; format: functional
Staphylococcus aureus [40] = assay: Bactericidal activity against […] Staphylococcus aureus clinical isolate USA300 assessed as log reduction in bacterial cell number at 8 times MIC after 8 hrs by time-kill curve analysis; format: functional
Staphylococcus aureus [41] = assay: Bactericidal activity against […] Staphylococcus aureus clinical isolate USA300 assessed as log reduction in bacterial cell number at 2 times MIC after 24 hrs by time-kill curve analysis; format: functional, organism-based
[42] = Selectivity index, ratio of GI50 for human HepG2 cells to MIC50 for methicillin-resistant Staphylococcus aureus clinical isolate; format: functional
Staphylococcus aureus [43] = assay: Bactericidal activity against methicillin-sensitive Staphylococcus aureus clinical isolate USA300 assessed as log reduction in bacterial cell number at MIC after 8 hrs by time-kill curve analysis; format: functional
Staphylococcus aureus [44] = assay: Antibacterial activity against Staphylococcus aureus ATCC 29213 after 20 to 24 hrs in presence of 2% heat inactivated bovine serum; format: functional
Staphylococcus aureus [45] = assay: Bactericidal activity against […] Staphylococcus aureus clinical isolate USA300 assessed as log reduction in bacterial cell number at 2 times MIC after 8 hrs by time-kill curve analysis; format: functional
Staphylococcus aureus [46] = assay: Bactericidal activity against […] Staphylococcus aureus clinical isolate USA300 assessed as log reduction in bacterial cell number at MIC after 24 hrs by time-kill curve analysis; format: functional, organism-based
Staphylococcus aureus [47] = assay: Bactericidal activity against methicillin-resistant Staphylococcus aureus clinical isolate after 24 and 48 hrs; format: functional
[48] = Cytotoxicity against human HepG2 cells after 24 hrs by WST-1 based colorimetric assay; format: cell-based
Staphylococcus aureus [49] = assay: Antibacterial activity against methicillin-sensitive Staphylococcus aureus ATCC 29213 after 20 to 24 hrs in presence of 50% heat inactivated bovine serum; format: functional
Staphylococcus aureus [50] = assay: Bactericidal activity against […] Staphylococcus aureus clinical isolate USA300 assessed as log reduction in bacterial cell number at 4 times MIC after 8 hrs by time-kill curve analysis; format: functional
[51] = Selectivity ratio of MIC for methicillin-resistant Staphylococcus aureus to MIC for vancomycin-resistant Enterococcus; format: functional
[52] = Metabolic stability in human liver microsomes assessed as compound loss after 60 mins; format: ADME; conditions: read-out: Drug degradation
[53] = Half life of compound in human liver microsomes; format: ADME
[54] = Intrinsic clearance in human liver microsomes assessed per mg of protein; format: ADME; conditions: read-out: CLH
[55] = Solubility of the compound at pH 6.5; format: physicochemical; conditions: buffer
[56] = Solubility of the compound at pH 2; format: physicochemical; conditions: buffer
[57] = Lipophilicity, logD of the compound at pH 7.4; format: physicochemical; conditions: buffer
[58] = Half life of compound in mouse liver microsomes; format: ADME
[59] = Lipophilicity, logD of the compound at pH 3; format: physicochemical; conditions: buffer
[60] = Intrinsic clearance in mouse liver microsomes assessed per mg of protein; format: ADME; conditions: read-out: CLH

`C/C(=N\NC(=N)N/N=C(\C)c1ccc(Cl)cc1)c1ccc(Cl)cc1` showed a Ratio (Staphylococcus aureus [1]) of 1, an MBC (Staphylococcus aureus [2]) of 2.5 µM (≈ 0.906 µg/mL) and an MIC90 (Staphylococcus aureus [3]) greater than 250 µM. The MBC (Staphylococcus aureus [4]) was 2.5 µM (≈ 0.906 µg/mL), the Ratio (Escherichia coli [5]) was 10 and the Activity (Staphylococcus aureus [6]) was “>=4 log10CFU/ml”. The MIC90 (Staphylococcus aureus [7]) was greater than 250 µM, the MIC90 (Staphylococcus aureus [8]) was 1.3 µM (≈ 0.471 µg/mL) and the GI50 at 24 h [9] was 6.7 µM. The MIC90 (Escherichia coli [10]) was greater than 250 µM, the MIC90 (Staphylococcus aureus [11]) was greater than 250 µM and the Activity (Staphylococcus aureus [12]) was “inactive”. The Ratio (Pseudomonas aeruginosa [13]) was 10, the “Selectivity Index” value [14] was 2 and the Activity (Staphylococcus aureus [15]) was “inactive”. The Activity (Staphylococcus aureus [16]) was “>=4 log10CFU/ml”, the MIC90 (Staphylococcus aureus [17]) was greater than 250 µM and the MBC (Staphylococcus aureus [18]) was 2.5 µM (≈ 0.906 µg/mL). The MIC90 (Staphylococcus aureus [19]) was 1.3 µM (≈ 0.471 µg/mL), the MBC (Staphylococcus aureus [20]) was 2.5 µM (≈ 0.906 µg/mL) and the Ratio (Staphylococcus aureus [21]) was 1. The MIC90 (Staphylococcus aureus [22]) was 1.3 µM (≈ 0.471 µg/mL), the MIC (Enterococcus) was 3.8 µM (≈ 1.38 µg/mL) and the MIC (Staphylococcus aureus [23]) was 7.5 µM (≈ 2.72 µg/mL). The Ratio (Staphylococcus aureus [24]) was 1, the Activity (Staphylococcus aureus [25]) was “>=4 log10CFU/ml” and the MIC90 (Pseudomonas aeruginosa [26]) was 5 µM. For the same compound, the Activity (Staphylococcus aureus [27]) was “inactive”, the MIC90 (Escherichia coli [28]) was 10 µM and the Activity (Staphylococcus aureus [29]) was “inactive”. The Activity (Staphylococcus aureus [30]) was “inactive”, the MIC90 (Pseudomonas aeruginosa [31]) was greater than 250 µM and the MIC90 (Staphylococcus aureus [32]) was 1.3 µM (≈ 0.471 µg/mL). For the same compound, the Activity [33] was “Non-toxic”, the Activity (Staphylococcus aureus [34]) was “inactive” and the “Selectivity Index” value [35] was 2. The “Selectivity Index” value [36] was 2, the Ratio (Staphylococcus aureus [37]) was 1 and the Activity (Staphylococcus aureus [38]) was “>=4 log10CFU/ml”. For the same compound, the MIC90 (Staphylococcus aureus [39]) was 1.3 µM (≈ 0.471 µg/mL), the Activity (Staphylococcus aureus [40]) was “>=4 log10CFU/ml” and the Activity (Staphylococcus aureus [41]) was “inactive”. For the same compound, the “Selectivity Index” value [42] was 2, the Activity (Staphylococcus aureus [43]) was “>=4 log10CFU/ml” and the MIC90 (Staphylococcus aureus [44]) was 10 µM. The Activity (Staphylococcus aureus [45]) was “>=4 log10CFU/ml”, the Activity (Staphylococcus aureus [46]) was “inactive” and the MBC (Staphylococcus aureus [47]) was 2.5 µM (≈ 0.906 µg/mL). The GI50 at 24 h [48] was 13.8 µM, the MIC90 (Staphylococcus aureus [49]) was greater than 250 µM and the Activity (Staphylococcus aureus [50]) was “>=4 log10CFU/ml”.
Work on `N=C(N/N=C/c1cccc(Br)c1)N/N=C/c1cccc(Br)c1` yielded a Selectivity ratio [51] of 10, an MIC (Escherichia coli [10]) greater than 400 µM and an MIC (Enterococcus) of 15.4 µM (≈ 6.52 µg/mL). The MIC (Staphylococcus aureus [23]) was greater than 400 µM and the MIC (Pseudomonas aeruginosa [31]) was greater than 400 µM.
For `N=C(N/N=C(\CO)c1ccc(Cl)cc1)N/N=C(\CO)c1ccc(Cl)cc1`, the Activity (Escherichia coli [10]) was “inactive”, the metabolised at 1 h [52] was less than 15% and the half-life [53] was greater than 4.12 h. It also gave an MIC (Enterococcus) of 15.2 µM (≈ 5.99 µg/mL), an MIC (Staphylococcus aureus [23]) of 20.3 µM (≈ 8 µg/mL) and a microsomal CLint [54] of less than 7 µL/min/mg. For the same compound, the solubility [55] was less than 1.6 µg/mL, the solubility [56] was 25 µg/mL (≈ 63.4 µM) and the logD [57] was 4. It also gave a half-life [58] of 2.18 h, a logD [59] of 3.2 and a microsomal CLint [60] of 13 µL/min/mg.

Reference: ChEMBL document CHEMBL3779887, “Robenidine Analogues as Gram-Positive Antibacterial Agents” (J Med Chem, 2016)
